From patent publication US5668159A, “1,3,4-thiadiazoles and 1,3,4-oxadiazoles as IIb/IIIa antagonists” (The DuPont Merck Pharmaceutical Company, priority 1996, dated 1997)
Where a name gives a salt, the structure may show the parent alone.

test system: platelet aggregation (platelet rich plasma (PRP)); assay: Platelet Aggregation Assay (inhibition of agonist-induced platelet aggregation in platelet rich plasma); assay type: cell-based; conditions: with esterase, ester prodrugs preincubated with 100 IU/mL porcine liver esterase 2 hours at 37° C., human PRP, 100 μM ADP, read-out: Platelet Aggregation Assay IC50 (with esterase)
Procedure: Platelet Aggregation Assay: Venous blood was obtained from the arm of a healthy human donor who was drug-free and aspirin-free for at least two weeks prior to blood collection. Blood was collected into 10 mL citrated Vacutainer tubes. The blood was centrifuged for 15 minutes at 150× g at room temperature, and platelet-rich plasma (PRP) was removed. The remaining blood was centrifuged for 15 minutes at 1500× g at room temperature, and platelet-poor plasma (PPP) was removed. Samples were assayed on a aggregometer (PAP-4 Platelet Aggregation Profiler), using PPP as the blank (100% transmittance). 200 μL of PRP was added to each micro test tube, and transmittance was set to 0%. 20 μL of various agonists (ADP, collagen, arachidonate, epinephrine, thrombin) were added to each tube, and the aggregation profiles were plotted (% transmittance versus time). The results are expressed as % inhibition of agonist-inducedplatelet aggregation. For the IC50 evaluation, the test compounds were added at various concentrations prior to the activation of the platelets.
Ester prodrugs were preincubated (10^-3 M F.C.) with 100 IU/mL Porcine liver esterase (Sigma Chemical Co., St. Louis, Mo., #E-3128) for 2 hours at 37° C. Aliquots are then diluted in 0.1M Tris, p H 7.4, to the desired concentrations. Aliquots of 20 μl of the esterase pretreated prodrugs are added to 200 μl of human platelet rich plasma. Samples were placed in platelet profiler (aggregometer) for 8 minutes at 37° C., followed by the addition of 100 μM Adenosine Diphosphate, (Sigma Chemical Co., St. Louis, Mo., #A-6521), to induce platelet aggregation. Platelet aggregation was allowed to proceed for 5 minutes. Percent inhibition is calculated using percent aggregation in the presence of the test compound divided by percent aggregation of control, times 100. This value is subtracted from 100, yielding percent inhibition. Calculation of IC50 is performed on a Texas Instruments TI59 with an IC50 program.
Table A below sets forth the antiplatelet activity of representative compounds of the present invention. The indicated compounds were tested for their ability to inhibit platelet aggregation (using platelet rich plasma (PRP)). The IC50 value (the concentration of antagonist which inhibits platelet aggregation by 50% relative to a control lacking the antagonist) is shown. In Table A the IC50 values are expressed as: +++=IC50 of <10 μM; ++=IC50 of […]; +=IC50 of 50-100 μM (μM=micromolar).

| SMILES | IC50 [µM] |
| --- | --- |
| CCCCOC(=O)N[C@@H](CNC(=O)Cc1nnc(-c2ccc(C(=N)N)cc2)s1)C(=O)OC [Example 1, Methyl N^3-[2-{2-(4-amidinophenyl)-1,3,4-thiadiazol-5-yl}-acetyl]-N^2-(n-butyloxycarbonyl)-2,3-(S)-diaminopropionate TFA salt] | < 10 |
| COC(=O)[C@H](CNC(=O)Cc1nnc(-c2ccc(C(=N)N)cc2)s1)NS(=O)(=O)c1cccc(C)c1 [Example 25, Methyl N^3-[2-{2-(4-amidinophenyl)-1,3,4-thiadiazol-5-yl}-acetyl]-N^2-(3-methylphenylsulfonyl)-2,3-(S)-diaminopropionate TFA salt] | < 10 |
| CNC(=N)c1ccc(-c2nnc(CC(=O)NC[C@H](NS(=O)(=O)c3cccc(C)c3)C(=O)OC)s2)cc1 [Example 44, Methyl N^3-[2-{2-(4-N-methylamidinophenyl)-1,3,4-thiadiazol-5-yl}-acetyl]-N^2-(3-methylphenylsulfonyl)-2,3-(S)-diaminopropionate TFA salt] | < 10 |
| CCCCNC(=N)c1ccc(-c2nnc(CC(=O)NC[C@H](NS(=O)(=O)c3cccc(C)c3)C(=O)OC)s2)cc1 [Example 64, Methyl N^3-[2-{2-(4-N-n-butylamidinophenyl)-1,3,4-thiadiazol-5-yl}-acetyl]-N^2-(3-methylphenylsulfonyl)-2,3-(S)-diaminopropionate TFA salt] | < 10 |
| COC(=O)[C@H](CNC(=O)Cc1nnc(-c2ccc(C(=N)N)cc2)s1)NS(=O)(=O)c1ccccc1C [Example 88, Methyl N^3-[2-{2-(4-amidinophenyl)-1,3,4-thiadiazol-5-yl}-acetyl]-N -(2-methylphenylsulfonyl)-2,3-(S)-diaminopropionate TFA salt] | < 10 |
| COC(=O)[C@H](CNC(=O)Cc1nnc(-c2ccc(C(=N)N)cc2)s1)NS(=O)(=O)c1c(C)noc1C [Example 96, Methyl N^3-[2-{2-(4-amidinophenyl)-1,3,4-thiadiazol-5-yl}-acetyl]-N^2-(3,5-dimethylisoxazol-4-ylsulfonyl)-2,3-(S)-diaminopropionate TFA salt] | < 10 |
| COC(=O)[C@H](CNC(=O)CCCc1nnc(C2CCNCC2)s1)NS(=O)(=O)c1cccc(C)c1 [Example 133, Methyl N^3-[4-{2-(4-piperidinyl)-1,3,4-thiadiazol-5-yl}-butyryl]-N^2-(3-methylphenylsulfonyl)-2,3-(S)-diaminopropionate TFA salt] | < 10 |
| COC(=O)[C@H](CNC(=O)Cc1nnc(-c2ccc(NC(=N)N)cc2)s1)NS(=O)(=O)c1cccc(C)c1 [Example 145, Methyl N^3-[2-{2-(4-guanidinophenyl)-1,3,4-thiadiazol-5-yl}-acetyl]-N^2-(3-methylphenylsulfonyl)-2,3-(S)-diaminopropionate TFA salt] | < 10 |
| COC(=O)[C@H](CNC(=O)Cc1nnc(-c2ccc(C(N)=O)cc2)s1)NS(=O)(=O)c1cccc(C)c1 [Example 170, Methyl N^3-[2-{2-(4-amidophenyl)-1,3,4-thiadiazol-5-yl}-acetyl]-N^2-(3-methylphenylsulfonyl)-2,3-(S)-diaminopropionate] | 50 to 100 |
| CCCCOC(=O)N[C@@H](CNC(=O)CSc1nnc(-c2ccc(C(=N)N)cc2)s1)C(=O)OC [Example 192, Methyl N^3-[2-{2-(4-amidinophenyl)-1,3,4-thiadiazol-5-ylthio}acetyl]-N^2-(n-butoxycarbonyl)-2,3-(S)-diaminopropionate HCl salt] | < 10 |
| CCCCOC(=O)N[C@@H](CNC(=O)CSc1nnc(-c2ccc(NC(=N)N)cc2)o1)C(=O)OC [Example 242, Methyl N^3-[2-{2-(4-guanidinophenyl)-1,3,4-oxadiazol-5-ylthio}acetyl]-N^2-(n-butoxycarbonyl)-2,3-(S)-diaminopropionate TFA salt] | 10 to 50 |
| CCCCOC(=O)N[C@@H](CNC(=O)CSc1nnc(-c2ccc(C(=N)N)cc2)o1)C(=O)OC [Example 258, Methyl N^3-[2-{2-(4-amidinophenyl)-1,3,4-oxadiazol-5-ylthio}-acetyl]-N^2-(n-butyloxycarbonyl)-2,3-(S)-diamino propionate HCl salt] | < 10 |
| CCCCOC(=O)N[C@@H](CNC(=O)Cc1nnc(-c2ccc(C(=N)N)cc2)o1)C(=O)OC [Example 318, Methyl N^3-[2-{2-(4-amidinophenyl)-1,3,4-oxadiazol-5-yl}-acetyl]-N-^2-(n-butyloxycarbonyl)-2,3-(S)-diaminopropionate TFA salt] | 50 to 100 |
| CCCCOC(=O)N[C@@H](CNC(=O)Cc1nnc(-c2ccc(NC(=N)N)cc2)o1)C(=O)OC [Example 335, Methyl N^3-[2-{2-(4-guanidinophenyl)-1,3,4-oxadiazol-5-yl}-acetyl]-N2-(n-butyloxycarbonyl)-2,3-(S)-diaminopropionate TFA salt] | < 10 |
| COC(=O)[C@H](Cc1ccccc1)NC(=O)CSc1nnc(-c2ccc(NC(=N)N)cc2)o1 [Example 392, Methyl N-[2-{2-(4-guanidinophenyl)-1,3,4-oxadiazol-5-ylthio}-acetyl]-(S)-phenylalanine TFA salt] | 10 to 50 |

same assay, conditions: without esterase, human PRP, read-out: Platelet Aggregation Assay IC50 (without esterase)

| SMILES | IC50 [µM] |
| --- | --- |
| CCCCOC(=O)N[C@@H](CNC(=O)Cc1nnc(-c2ccc(C(=N)N)cc2)s1)C(=O)O [Example 2, N^3-[2-{2-(4-amidinophenyl)-1,3,4-thiadiazol-5-yl}-acetyl]-N^2-(n-butyloxycarbonyl)-2,3-(S)-diaminopropionic acid HCl salt] | < 10 |
| Cc1cccc(S(=O)(=O)N[C@@H](CNC(=O)Cc2nnc(-c3ccc(C(=N)N)cc3)s2)C(=O)O)c1 [Example 26, N^3-[2-{2-(4-amidinophenyl)-1,3,4-thiadiazol-5-yl}-acetyl]-N^2-(3-methylphenylsulfonyl)-2,3-(S)-diaminopropionic acid HCl salt] | < 10 |
| CNC(=N)c1ccc(-c2nnc(CC(=O)NC[C@H](NS(=O)(=O)c3cccc(C)c3)C(=O)O)s2)cc1 [Example 63, N^3-[2-{2-(4-N-methylamidinophenyl)-1,3,4-thiadiazol-5-yl}-acetyl]-N^2-(3-methylphenylsulfonyl)-2,3-(S)-diaminopropionic acid HCl salt] | < 10 |
| CCCCNC(=N)c1ccc(-c2nnc(CC(=O)NC[C@H](NS(=O)(=O)c3cccc(C)c3)C(=O)O)s2)cc1 [Example 65, N^3-[2-{2-(4-N-n-butylamidinophenyl)-1,3,4-thiadiazol-5-yl}-acetyl]-N^2-(3-methylphenylsulfonyl)-2,3-(S)-diaminopropionic acid HCl salt] | < 10 |
| Cc1ccccc1S(=O)(=O)N[C@@H](CNC(=O)Cc1nnc(-c2ccc(C(=N)N)cc2)s1)C(=O)O [Example 89, N^3-[2-{2-(4-amidinophenyl)-1,3,4-thiadiazol-5-yl}-acetyl]-N^2-(2-methylphenylsulfonyl)-2,3-(S)-diaminopropionate acid HCl salt] | < 10 |
| Cc1noc(C)c1S(=O)(=O)N[C@@H](CNC(=O)Cc1nnc(-c2ccc(C(=N)N)cc2)s1)C(=O)O [Example 97, N^3-[2-{2-(4-amidinophenyl)-1,3,4-thiadiazol-5-yl}-acetyl]-N^2-(3,5-dimethylisoxazol-4-ylsulfonyl)-2,3-(S)-diaminopropionic acid HCl salt] | < 10 |
| Cc1cccc(S(=O)(=O)N[C@@H](CNC(=O)CCCc2nnc(C3CCNCC3)s2)C(=O)O)c1 [Example 134, N^3-[4-{2-(4-piperidinyl)-1,3,4-thiadiazol-5-yl}-butyryl]-N^2-(3-methylphenylsulfonyl)-2,3-(S)-diaminopropionic acid TFA salt] | < 10 |
| Cc1cccc(S(=O)(=O)N[C@@H](CNC(=O)Cc2nnc(-c3ccc(NC(=N)N)cc3)s2)C(=O)O)c1 [Example 146, N^3-[2-{2-(4-guanidinophenyl)-1,3,4-thiadiazol-5-yl}-acetyl]-N^2-(3-methylphenylsulfonyl)-2,3-(S)-diaminopropionic acid TFA salt] | < 10 |
| Cc1cccc(S(=O)(=O)N[C@@H](CNC(=O)Cc2nnc(-c3ccc(C(N)=O)cc3)s2)C(=O)O)c1 [Example 171, N^3-[2-{2-(4-Amidophenyl)-1,3,4-thiadiazol-5-yl}-acetyl]-N^2-(3-methylphenylsulfonyl)-2,3-(S)-diaminopropionic acid] | < 10 |
| CCCCOC(=O)N[C@@H](CNC(=O)CSc1nnc(-c2ccc(C(=N)N)cc2)s1)C(=O)O [Example 193, N^3-[2-{2-(4-Amidinophenyl)-1,3,4-thiadiazol-5-ylthio}acetyl]-N^2-(n-butoxycarbonyl)-2,3-(S)-diaminopropionic acid HCl salt] | < 10 |
